Test results as given in paper PMC10733307, “Dual species sphingosine-1-phosphate lyase inhibitors to combine antifungal and anti-inflammatory activities in cystic fibrosis: a feasibility study” (Scientific Reports, 2023).

What was measured:
AfuSPL [1] = target: T1, AfuSPL (Aspergillus fumigatus, UniProt Q4WPU3); experiment: fluorimetric lyase assay; format: biochemical; details: 1 mM inhibitor, fluorogenic S1P substrate, pH 7.4, 37 °C
T1 construct: gene AFUA_4G10470; cytosolic catalytic domain, Δ1-81, C-terminal His tag, pET28, E. coli BL21 with GroEL/GroES (pGro7), about 50 kDa subunit, dimer
T1 sequence (Q4WPU3 82-572): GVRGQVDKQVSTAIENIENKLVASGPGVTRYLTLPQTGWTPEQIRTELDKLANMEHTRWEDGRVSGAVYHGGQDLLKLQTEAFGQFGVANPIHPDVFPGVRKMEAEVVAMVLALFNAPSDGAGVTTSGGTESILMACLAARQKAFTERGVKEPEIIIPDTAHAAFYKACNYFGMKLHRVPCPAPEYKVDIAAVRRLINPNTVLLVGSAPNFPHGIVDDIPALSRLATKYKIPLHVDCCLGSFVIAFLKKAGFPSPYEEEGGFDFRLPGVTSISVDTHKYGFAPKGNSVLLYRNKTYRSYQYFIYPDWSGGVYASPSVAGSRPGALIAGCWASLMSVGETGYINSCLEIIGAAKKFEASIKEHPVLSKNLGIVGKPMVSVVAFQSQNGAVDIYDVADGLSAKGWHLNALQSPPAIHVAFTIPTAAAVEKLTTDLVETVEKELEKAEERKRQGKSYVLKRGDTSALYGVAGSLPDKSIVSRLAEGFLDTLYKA

hSPL = target: T2, hSPL (Homo sapiens, UniProt O95470); experiment: fluorimetric lyase assay, global fit to competitive inhibition model; format: biochemical
T2 construct: gene SGPL1
T2 sequence (O95470 81-568): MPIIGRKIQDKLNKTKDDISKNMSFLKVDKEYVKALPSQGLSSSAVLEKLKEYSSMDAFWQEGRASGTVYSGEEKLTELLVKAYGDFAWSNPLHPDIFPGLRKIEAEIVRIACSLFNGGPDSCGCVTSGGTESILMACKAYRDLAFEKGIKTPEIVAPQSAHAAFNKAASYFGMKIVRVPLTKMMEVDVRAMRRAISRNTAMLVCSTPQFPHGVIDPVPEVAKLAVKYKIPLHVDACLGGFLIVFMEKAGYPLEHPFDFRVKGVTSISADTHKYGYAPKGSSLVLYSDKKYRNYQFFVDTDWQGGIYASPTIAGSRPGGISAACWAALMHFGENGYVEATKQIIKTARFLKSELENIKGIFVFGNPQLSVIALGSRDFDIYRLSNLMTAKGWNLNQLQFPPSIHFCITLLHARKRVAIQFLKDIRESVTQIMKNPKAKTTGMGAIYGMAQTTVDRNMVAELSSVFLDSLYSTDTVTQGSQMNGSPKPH
Text: fluorimetric lyase assay, global fit to competitive inhibition model on hSPL | From a global fitting of the data we estimated their KI values

AfuSPL [2] = target: T1, AfuSPL; experiment: as above; format: biochemical
Text: fluorimetric lyase assay, global fit to competitive inhibition model on AfuSPL | From a global fitting of the data we estimated their KI values

[3] = system: N[C@@H](COP(=O)(O)O)[C@H](O)CCOc1ccc2ccc(=O)oc2c1; experiment: purified protein; details: 100 mM Hepes pH 7.4, 0.1 mM EDTA, 0.05% Triton X-100, 100 μM PLP, 37 °C

## C[C@@H]1CN(c2nnc(Cc3ccccc3)c3ccc(Cl)cc23)CCN1c1ccc(C#N)cn1 [30J, 6-[(2R)-4-(4-benzyl-7-chlorophthalazin-1-yl)-2-methylpiperazin-1-yl]pyridine-3-carbonitrile]
AfuSPL [1]
  % inhibition at 1 mM: without any significant effect on the activity of AfuSPL

## CCCOC(=O)c1c(NC(=O)CCCC(=O)Nc2sc3c(c2C(=O)OCCC)CCCCC3)sc2c1CCCCC2 [C17]
hSPL
  Ki: 240 ± 50 µM
AfuSPL [2]
  Ki: 270 ± 80 µM

## AfuSPL (Aspergillus fumigatus Af293)
[3]
  Km: 3.1 ± 0.4 mM
  kcat: 0.103 ± 0.007 s⁻¹
